{"source": "paper PMC4820897", "about": "“Structural insight in the toppling mechanism of an energy-coupling factor transporter” (Nature Communications, 2016)", "key": {"[1]": {"target": "T1, ECF–FolT2 (Lactobacillus delbrueckii, UniProt Q1GBI9+Q1GBJ0)", "T1 construct": "gene ecfA1; full ECF complex EcfA-EcfA'-EcfT-FolT2; N-terminal His10-tag and TEV site on EcfA, C-terminal STREPII tag on FolT2; expressed in E. coli MC1061; nucleotide sites on EcfA and EcfA'; with Energy-coupling factor transporter transmembrane protein EcfT; Folate family ECF transporter S component FolT2", "T1 sequence (Q1GBI8 entry or part of it)": "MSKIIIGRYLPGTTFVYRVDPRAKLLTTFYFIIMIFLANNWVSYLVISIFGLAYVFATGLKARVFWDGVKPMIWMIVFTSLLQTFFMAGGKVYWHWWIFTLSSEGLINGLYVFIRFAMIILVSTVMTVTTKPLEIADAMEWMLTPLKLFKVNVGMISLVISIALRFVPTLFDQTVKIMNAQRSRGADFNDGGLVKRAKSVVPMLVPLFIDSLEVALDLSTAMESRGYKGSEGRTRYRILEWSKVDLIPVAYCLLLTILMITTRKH", "T1 sequence (Q1GBJ0 whole entry)": "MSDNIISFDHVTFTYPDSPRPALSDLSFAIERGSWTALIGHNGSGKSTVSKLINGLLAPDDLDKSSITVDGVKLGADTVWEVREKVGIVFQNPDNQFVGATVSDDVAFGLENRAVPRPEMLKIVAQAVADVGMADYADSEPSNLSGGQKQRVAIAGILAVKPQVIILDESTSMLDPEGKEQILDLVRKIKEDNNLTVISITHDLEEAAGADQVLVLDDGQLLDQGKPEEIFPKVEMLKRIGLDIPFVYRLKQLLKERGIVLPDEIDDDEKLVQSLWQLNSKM", "T1 sequence (Q1GBI9 whole entry)": "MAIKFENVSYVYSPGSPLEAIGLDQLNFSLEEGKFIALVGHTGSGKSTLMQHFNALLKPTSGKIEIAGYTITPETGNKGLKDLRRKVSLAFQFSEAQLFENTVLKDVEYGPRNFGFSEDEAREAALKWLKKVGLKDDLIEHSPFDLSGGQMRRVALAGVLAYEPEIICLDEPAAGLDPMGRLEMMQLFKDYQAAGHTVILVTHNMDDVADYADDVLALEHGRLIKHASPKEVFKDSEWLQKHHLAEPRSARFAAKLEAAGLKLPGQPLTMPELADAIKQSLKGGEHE", "T1 sequence (Q1G929 entry or part of it, further chain)": "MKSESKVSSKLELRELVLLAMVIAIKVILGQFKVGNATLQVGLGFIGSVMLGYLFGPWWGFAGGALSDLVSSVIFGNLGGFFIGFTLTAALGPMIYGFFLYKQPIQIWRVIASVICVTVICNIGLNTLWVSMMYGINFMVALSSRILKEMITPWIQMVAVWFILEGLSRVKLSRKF", "test": "crystal structure […] Å", "type": "binding", "conditions": "10 mM MgCl2; one AMP-PNP bound to each of EcfA and EcfA'; ATPase dimer open"}, "[2]": {"target": "T1, ECF–FolT2", "test": "coupled-enzyme ATPase assay in proteoliposomes", "type": "biochemical", "conditions": "1 mM MgATP, 50 mM KPi pH 7.5, 200 mM NaCl, 30 °C"}, "[3]": {"target": "T2, ECF–FolT2 (Lactobacillus delbrueckii, UniProt Q1G929)", "T2 construct": "gene Ldb1625; His10-EcfA, FolT2-STREPII; expressed in E. coli MC1061; reconstituted in proteoliposomes; Energy-coupling factor transporter transmembrane protein EcfT", "T2 sequence (Q1GBI8 entry or part of it)": "as the sequence (Q1GBI8 entry or part of it) above", "T2 sequence (Q1GBJ0 whole entry, further chain)": "as the sequence (Q1GBJ0 whole entry) above", "T2 sequence (Q1GBI9 whole entry, further chain)": "as the sequence (Q1GBI9 whole entry) above", "T2 sequence (Q1G929 entry or part of it)": "as the sequence (Q1G929 entry or part of it, further chain) above", "test": "radiolabelled folate uptake and efflux in proteoliposomes", "type": "biochemical", "conditions": "5 mM luminal MgATP, 100 nM folate, pH 7.5, 25 °C; labelled compound"}, "[4]": {"target": "T3, FolT1 (Lactobacillus delbrueckii, UniProt Q1G930)", "T3 construct": "gene Ldb1624; solitary S-component, N-terminal His8-tag, expressed in Lactococcus lactis NZ9000, purified in n-nonyl-beta-D-glucopyranoside", "T3 sequence (Q1G930 entry or part of it)": "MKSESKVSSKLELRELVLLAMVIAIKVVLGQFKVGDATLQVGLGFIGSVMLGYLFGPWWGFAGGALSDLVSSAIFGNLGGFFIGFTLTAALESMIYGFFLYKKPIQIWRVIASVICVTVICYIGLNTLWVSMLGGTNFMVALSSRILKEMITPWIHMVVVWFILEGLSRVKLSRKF", "test": "intrinsic fluorescence titration; crystal structure […] Å", "type": "binding", "conditions": "read-out: dissociation constant"}, "[5]": {"target": "T4, FolT2 (Lactobacillus delbrueckii, UniProt Q1G929)", "T4 construct": "gene Ldb1625; solitary S-component, N-terminal His8-tag, expressed in Lactococcus lactis NZ9000, purified in n-nonyl-beta-D-glucopyranoside", "T4 sequence (Q1G929 entry or part of it)": "as the sequence (Q1G929 entry or part of it, further chain) above", "test": "intrinsic fluorescence titration", "type": "binding", "conditions": "read-out: dissociation constant"}, "[6]": {"target": "T5, FolT1 (Lactobacillus delbrueckii, UniProt Q1G930, Y122N)", "T5 construct": "gene Ldb1624; solitary S-component, N-terminal His8-tag, expressed in Lactococcus lactis NZ9000, purified in n-nonyl-beta-D-glucopyranoside", "T5 sequence (Q1G930 entry or part of it Y122N)": "as the sequence (Q1G930 entry or part of it) above, with Y122N counted along it", "test": "intrinsic fluorescence titration", "type": "binding", "conditions": "read-out: dissociation constant"}, "[7]": {"target": "T6, ECF–FolT1 (Lactobacillus delbrueckii, UniProt Q1G930)", "T6 construct": "gene Ldb1624; full ECF complex EcfA-EcfA'-EcfT-FolT1; His10-EcfA, FolT1-STREPII; expressed in E. coli MC1061; reconstituted in proteoliposomes; Energy-coupling factor transporter transmembrane protein EcfT", "T6 sequence (Q1GBJ0 whole entry)": "as the sequence (Q1GBJ0 whole entry) above", "T6 sequence (Q1G930 entry or part of it)": "as the sequence (Q1G930 entry or part of it) above", "T6 sequence (Q1GBI9 whole entry, further chain)": "as the sequence (Q1GBI9 whole entry) above", "T6 sequence (Q1GBI8 entry or part of it, further chain)": "as the sequence (Q1GBI8 entry or part of it) above", "test": "radiolabelled folate uptake in proteoliposomes", "type": "biochemical", "conditions": "luminal MgATP; labelled compound"}}}
{"smiles": "Nc1ncnc2c1ncn2[C@@H]1O[C@H](COP(=O)(O)OP(=O)(O)NP(=O)(O)O)[C@@H](O)[C@H]1O", "note": "[AMP–PNP]", "values": [{"measurement": "crystal structure 3.3 Å", "setting": "[1]", "result": "EcfA and EcfA′ each bind a molecule of the nucleotide"}]}
{"smiles": "Nc1ncnc2c1ncn2[C@@H]1O[C@H](COP(=O)(O)OP(=O)(O)OP(=O)(O)O)[C@@H](O)[C@H]1O", "note": "[ATP]", "values": [{"measurement": "coupled-enzyme ATPase assay in proteoliposomes", "setting": "[2]", "result": "we also measured the ATPase activity of ECF–FolT2 in the proteoliposomes"}]}
{"smiles": "Nc1nc2ncc(CNc3ccc(C(=O)N[C@@H](CCC(=O)O)C(=O)O)cc3)nc2c(=O)[nH]1", "note": "[folate]", "values": [{"measurement": "radiolabelled folate uptake and efflux in proteoliposomes", "setting": "[3]", "result": "ECF transporters indeed translocate their substrates across the membrane"}, {"measurement": "Kd", "setting": "[4]", "result": "1 ± 0.24", "unit": "nM"}, {"measurement": "Kd", "setting": "[5]", "result": "3.1 ± 1.4", "unit": "nM"}, {"measurement": "Kd", "setting": "[6]", "result": "2.5 ± 1.2", "unit": "nM"}, {"measurement": "radiolabelled folate uptake in proteoliposomes", "setting": "[7]", "result": "Both ECF transporters mediated association of radiolabelled folate with the proteoliposomes"}]}
